Patent publication US20240116985A1, “STAPLED PEPTIDES AND METHODS THEREOF” (priority 2020, published 2024)
Values after ≈ are worked out from the molar mass of the structure shown. Read-outs that look alike come from different tables or passages of the source.

How the values were obtained:
Solubility in PBS = format: physicochemical
How it was run: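 Steps: ultracentrifuge the peptide PBS solution, inject the supernatant on HPLC, inject a 50 μM peptide DMSO solution as reference, then calculate solubility as area ratio (PBS/DMSO) × 50 uM.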

[1] = target: T1, full-length beta-Catenin (Uniprot ID P35222) (Homo sapiens, UniProt P35222); assay: Fluorescence polarization IC50 (beta-catenin / 5FAM-TCF4 10-53 competition); format: binding
T1 construct: 10 nM full-length beta-Catenin (Uniprot ID P35222)
T1 sequence (P35222 1-781): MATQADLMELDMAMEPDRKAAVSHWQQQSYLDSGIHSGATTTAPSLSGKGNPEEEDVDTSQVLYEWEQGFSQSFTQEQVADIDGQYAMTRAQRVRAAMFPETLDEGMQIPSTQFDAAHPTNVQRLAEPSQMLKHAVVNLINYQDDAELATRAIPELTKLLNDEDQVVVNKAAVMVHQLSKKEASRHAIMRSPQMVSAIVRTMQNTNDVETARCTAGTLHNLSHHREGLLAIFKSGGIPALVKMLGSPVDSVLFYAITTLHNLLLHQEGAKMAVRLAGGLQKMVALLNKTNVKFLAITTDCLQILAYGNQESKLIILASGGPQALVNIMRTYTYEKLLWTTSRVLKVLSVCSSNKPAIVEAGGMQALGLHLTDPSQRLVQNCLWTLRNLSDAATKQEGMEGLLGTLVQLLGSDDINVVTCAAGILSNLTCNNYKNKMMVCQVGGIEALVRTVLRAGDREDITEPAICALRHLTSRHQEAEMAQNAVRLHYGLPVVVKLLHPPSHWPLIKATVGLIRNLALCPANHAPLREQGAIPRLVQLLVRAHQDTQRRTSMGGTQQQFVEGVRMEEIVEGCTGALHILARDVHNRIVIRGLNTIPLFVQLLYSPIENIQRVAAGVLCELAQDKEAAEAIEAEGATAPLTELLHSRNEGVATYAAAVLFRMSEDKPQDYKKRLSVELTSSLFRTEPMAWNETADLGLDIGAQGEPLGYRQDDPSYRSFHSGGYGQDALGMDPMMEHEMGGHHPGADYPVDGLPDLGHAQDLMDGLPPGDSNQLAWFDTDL

CHI Log D procedure = format: physicochemical; conditions: pH 7.4
[2] = fluorescence polarization, beta-catenin, read-out: FP EC50

Structure (SMILES)	Solubility (Solubility in PBS)	IC50 [1, 2]	IC50 ([1]; read-out: beta-Catenin FP IC50)	CHI Log D (CHI Log D procedure)
CCN(CC(=O)O)C[C@@H]1NC(=O)[C@H](CC(=O)O)NC(=O)C2(CCCC=CCCCOC(=O)N3CC[C@@](C(=O)N[C@@H](Cc4ccsc4)C(=O)N[C@@H](Cc4csc5ccccc45)C(=O)N[C@@H](CCC(N)=O)C(N)=O)(C3)NC(=O)[C@H](CC(N)=O)NC(=O)[C@H](Cc3ccccc3)NC(=O)[C@H](C)NC(=O)[C@H](C)NC1=O)CCCC=CC[C@]1(CCCN1C(C)=O)C(=O)N[C@@H](CC(=O)O)C(=O)N[C@@H](CC(C)(C)C)C(=O)N2 (stereo partly drawn) [I-965, Ac-PL3-Asp-Npg-B5-Asp-EtGA-Ala-Ala-Phe-Asn-PyrS2-3Thi-BztA-Gln-NH2]	45 µM (≈ 88.9 µg/mL)	1780 nM	1780 nM	1.903
CCN(CC(=O)O)C[C@@H]1NC(=O)[C@H](CC(=O)O)NC(=O)C2(CCCC=CCCCOC(=O)N3CC[C@@](C(=O)N[C@@H](Cc4ccsc4)C(=O)N[C@@H](Cc4csc5ccccc45)C(=O)N[C@@H](CCC(N)=O)C(N)=O)(C3)NC(=O)[C@H](CO)NC(=O)[C@H](Cc3ccccc3)NC(=O)[C@H](C)NC(=O)[C@H](C)NC1=O)CCCC=CC[C@]1(CCCN1C(C)=O)C(=O)N[C@@H](CC(=O)O)C(=O)N[C@@H](CC(C)(C)C)C(=O)N2 (stereo partly drawn) [I-966, Ac-PL3-Asp-Npg-B5-Asp-EtGA-Ala-Ala-Phe-Ser-PyrS2-3Thi-BztA-Gln-NH2]	43 µM (≈ 83.8 µg/mL)	2020 nM	2020 nM	1.791
CCN(CC(=O)O)C[C@@H]1NC(=O)[C@H](CC(=O)O)NC(=O)C2(CCCC=CCCCOC(=O)N3CC[C@@](C(=O)N[C@@H](Cc4ccsc4)C(=O)N[C@@H](Cc4csc5ccccc45)C(=O)N[C@@H](CCC(N)=O)C(N)=O)(C3)NC(=O)[C@H](CO)NC(=O)[C@H](Cc3ccccc3)NC(=O)[C@H](C)NC(=O)[C@H](C)NC1=O)CCCC=CC[C@]1(CCCN1C(C)=O)C(=O)N[C@@H](CC(=O)O)C(=O)N[C@@H](CC(C)(C)C)C(=O)N2 (stereo partly drawn) [I-967, Ac-PL3-Asp-Npg-B5-Asp-EtGA-Ala-Ala-Phe-Ser-PyrS2-3Thi-BztA-Gln-NH2]	45 µM (≈ 87.7 µg/mL)	1740 nM	1740 nM	1.884
CCN(CC(=O)O)C[C@@H]1NC(=O)[C@H](CC(=O)O)NC(=O)C2(CCCC=CCCCOC(=O)N3CC[C@@](C(=O)N[C@@H](Cc4ccsc4)C(=O)N[C@@H](Cc4csc5ccccc45)C(=O)N[C@@H](CCC(N)=O)C(N)=O)(C3)NC(=O)[C@H]([C@@H](C)O)NC(=O)[C@H](Cc3ccccc3)NC(=O)[C@H](C)NC(=O)[C@H](C)NC1=O)CCCC=CC[C@]1(CCCN1C(C)=O)C(=O)N[C@@H](CC(=O)O)C(=O)N[C@@H](CC(C)(C)C)C(=O)N2 (stereo partly drawn) [I-968, Ac-PL3-Asp-Npg-B5-Asp-EtGA-Ala-Ala-Phe-Thr-PyrS2-3Thi-BztA-Gln-NH2]	30 µM (≈ 58.9 µg/mL)	2980 nM	2980 nM	1.752
CCN(CC(=O)O)C[C@@H]1NC(=O)[C@H](CC(=O)O)NC(=O)C2(CCCC=CCCCOC(=O)N3CC[C@@](C(=O)N[C@@H](Cc4ccsc4)C(=O)N[C@@H](Cc4csc5ccccc45)C(=O)N[C@@H](CCC(N)=O)C(N)=O)(C3)NC(=O)[C@H]([C@@H](C)O)NC(=O)[C@H](Cc3ccccc3)NC(=O)[C@H](C)NC(=O)[C@H](C)NC1=O)CCCC=CC[C@]1(CCCN1C(C)=O)C(=O)N[C@@H](CC(=O)O)C(=O)N[C@@H](CC(C)(C)C)C(=O)N2 (stereo partly drawn) [I-969, Ac-PL3-Asp-Npg-B5-Asp-EtGA-Ala-Ala-Phe-Thr-PyrS2-3Thi-BztA-Gln-NH2]	46 µM (≈ 90.3 µg/mL)	2320 nM	2320 nM	1.851
CCN(CC(=O)O)C[C@@H]1NC(=O)[C@H](CC(=O)O)NC(=O)C2(CCCC=CCCCOC(=O)N3CC[C@@](C(=O)N[C@@H](Cc4ccsc4)C(=O)N[C@@H](Cc4csc5ccccc45)C(=O)N[C@@H](CCC(N)=O)C(N)=O)(C3)NC(=O)[C@H](Cc3ccccc3)NC(=O)[C@H](Cc3ccccc3)NC(=O)[C@H](C)NC(=O)[C@H](C)NC1=O)CCCC=CC[C@]1(CCCN1C(C)=O)C(=O)N[C@@H](CC(=O)O)C(=O)N[C@@H](CC(C)(C)C)C(=O)N2 (stereo partly drawn) [I-971, Ac-PL3-Asp-Npg-B5-Asp-EtGA-Ala-Ala-Phe-Phe-PyrS2-3Thi-BztA-Gln-NH2]	10 µM (≈ 20.1 µg/mL)	1610 nM	1840 nM	1.939
CCN(CC(=O)O)C[C@@H]1NC(=O)[C@H](CC(=O)O)NC(=O)C2(CCCC=CCCCOC(=O)N3CC[C@@](C(=O)N[C@@H](Cc4ccsc4)C(=O)N[C@@H](Cc4csc5ccccc45)C(=O)N[C@@H](CCC(N)=O)C(N)=O)(C3)NC(=O)[C@H](CC(C)C)NC(=O)[C@H](Cc3ccccc3)NC(=O)[C@H](C)NC(=O)[C@H](C)NC1=O)CCCC=CC[C@]1(CCCN1C(C)=O)C(=O)N[C@@H](CC(=O)O)C(=O)N[C@@H](CC(C)(C)C)C(=O)N2 (stereo partly drawn) [I-972, Ac-PL3-Asp-Npg-B5-Asp-EtGA-Ala-Ala-Phe-Leu-PyrS2-3Thi-BztA-Gln-NH2]	30 µM (≈ 59.2 µg/mL)	1820 nM	1820 nM	1.879
CCN(CC(=O)O)C[C@@H]1NC(=O)[C@H](CC(=O)O)NC(=O)C2(CCCC=CCCCOC(=O)N3CC[C@@](C(=O)N[C@@H](Cc4ccsc4)C(=O)N[C@@H](Cc4csc5ccccc45)C(=O)N[C@@H](CO)C(N)=O)(C3)NC(=O)[C@H](CO)NC(=O)[C@H](Cc3ccccc3)NC(=O)[C@H](C)NC(=O)[C@H](C)NC1=O)CCCC=CC[C@]1(CCCN1C(C)=O)C(=O)N[C@@H](CC(=O)O)C(=O)N[C@@H](CC(C)(C)C)C(=O)N2 (stereo partly drawn) [I-974, Ac-PL3-Asp-Npg-B5-Asp-EtGA-Ala-Ala-Phe-Ser-PyrS2-3Thi-BztA-Ser-NH2]	10 µM (≈ 19.1 µg/mL)	1780 nM	1780 nM	1.857

Compounds with a lower IC50 [1, 2], results first:

Solubility (Solubility in PBS)	IC50 [1, 2]	IC50 ([1]; read-out: beta-Catenin FP IC50)	CHI Log D (CHI Log D procedure)	Structure (SMILES)
46 µM (≈ 90.9 µg/mL)	1440 nM	1440 nM	1.802	CCN(CC(=O)O)C[C@@H]1NC(=O)[C@H](CC(=O)O)NC(=O)C2(CCCC=CCCCOC(=O)N3CC[C@@](C(=O)N[C@@H](Cc4ccsc4)C(=O)N[C@@H](Cc4csc5ccccc45)C(=O)N[C@@H](CCC(N)=O)C(N)=O)(C3)NC(=O)[C@H](CC(N)=O)NC(=O)[C@H](Cc3ccccc3)NC(=O)[C@H](C)NC(=O)[C@H](C)NC1=O)CCCC=CC[C@]1(CCCN1C(C)=O)C(=O)N[C@@H](CC(=O)O)C(=O)N[C@@H](CC(C)(C)C)C(=O)N2 (stereo partly drawn) [I-964, Ac-PL3-Asp-Npg-B5-Asp-EtGA-Ala-Ala-Phe-Asn-PyrS2-3Thi-BztA-Gln-NH2]
48 µM (≈ 94.8 µg/mL)	881 nM	881 nM	−0.036	CC(=O)N1CCC[C@]12CC=CCCCC1(CCCC=CCCCOC(=O)N3CC[C@@](C(=O)N[C@@H](Cc4ccsc4)C(=O)N[C@@H](Cc4csc5ccccc45)C(=O)N[C@@H](CO)C(N)=O)(C3)NC(=O)[C@H](CCO)NC(=O)[C@H](Cc3ccccc3)NC(=O)[C@H](C)NC(=O)[C@H](C)NC(=O)[C@H](CN(CC(=O)O)CC(F)(F)F)NC(=O)[C@H](CC(=O)O)NC1=O)NC(=O)[C@H](CC(C)(C)C)NC(=O)[C@H](CC(=O)O)NC2=O (stereo partly drawn) [I-959, Ac-PL3-Asp-Npg-B5-Asp-TfeGA-Ala-Ala-Phe-Hse-PyrS2-3Thi-BztA-Ser-NH2]
10 µM (≈ 19.9 µg/mL)	357 nM	357 nM	2.123	CC(=O)N1CCC[C@]12CC=CCCCC1(CCCC=CCCCOC(=O)N3CC[C@@](C(=O)N[C@@H](Cc4ccsc4)C(=O)N[C@@H](Cc4csc5ccccc45)C(=O)N[C@@H](CO)C(N)=O)(C3)NC(=O)[C@H](CC(C)C)NC(=O)[C@H](Cc3ccccc3)NC(=O)[C@H](C)NC(=O)[C@H](C)NC(=O)[C@H](CN(CC(=O)O)CC(F)(F)F)NC(=O)[C@H](CC(=O)O)NC1=O)NC(=O)[C@H](CC(C)(C)C)NC(=O)[C@H](CC(=O)O)NC2=O (stereo partly drawn) [I-961, Ac-PL3-Asp-Npg-B5-Asp-TfeGA-Ala-Ala-Phe-Leu-PyrS2-3Thi-BztA-Ser-NH2]
13 µM (≈ 25.8 µg/mL)	336 nM	336 nM	2.06	CC(=O)N1CCC[C@]12CC=CCCCC1(CCCC=CCCCOC(=O)N3CC[C@@](C(=O)N[C@@H](Cc4ccsc4)C(=O)N[C@@H](Cc4csc5ccccc45)C(=O)N[C@@H](CO)C(N)=O)(C3)NC(=O)[C@H](CC(C)C)NC(=O)[C@H](Cc3ccccc3)NC(=O)[C@H](C)NC(=O)[C@H](C)NC(=O)[C@H](CN(CC(=O)O)CC(F)(F)F)NC(=O)[C@H](CC(=O)O)NC1=O)NC(=O)[C@H](CC(C)(C)C)NC(=O)[C@H](CC(=O)O)NC2=O (stereo partly drawn) [I-960, Ac-PL3-Asp-Npg-B5-Asp-TfeGA-Ala-Ala-Phe-Leu-PyrS2-3Thi-BztA-Ser-NH2]
